# Laboratory results published in PMC9603770, “Broad-Spectrum Inhibitors against Class A, B, and C Type β-Lactamases to Block the Hydrolysis against Antibiotics: Kinetics and Structural Characterization” (Microbiology Spectrum, 2022).
# Where two headings read alike, the source gives them in different places.
# What was measured:
# [1] = biological target: T1, CTX-M-15 (Escherichia coli, UniProt Q9EXV5); parameters: method as in PMID 20921316; conditions: cited from earlier work
# T1 construct: made in house; host or cells: E. coli (DH5 and BL21(DE3) named)
# T1 sequence (Q9EXV5 29-291, species assumed): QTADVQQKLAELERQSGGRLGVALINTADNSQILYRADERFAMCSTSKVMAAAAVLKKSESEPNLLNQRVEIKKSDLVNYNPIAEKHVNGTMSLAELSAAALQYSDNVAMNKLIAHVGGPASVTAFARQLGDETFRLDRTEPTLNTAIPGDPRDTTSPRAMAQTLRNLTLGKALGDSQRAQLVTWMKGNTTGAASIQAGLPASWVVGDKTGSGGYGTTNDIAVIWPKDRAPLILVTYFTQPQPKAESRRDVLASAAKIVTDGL
# [2] = biological target: T1, CTX-M-15; assay: Steady-state kinetics of antibiotic hydrolysis with inhibitor; type: biochemical; conditions: inhibitor concentration as per IC50
# Description: (§1) The enzyme kinetics parameters (Km, and kcat) for all six proteins/enzymes in combination with different antibiotics (cefotaxime, imipenem, and meropenem), were calculated. The concentration of inhibitors, D63, D2148, and D2573, was as per the IC50 value (Fig. 5); the kinetic parameters are listed in Table 8.
# (§2) The steady-state kinetics of all six proteins were determined using the antibiotics:imipenem (Δε295 = −11,500 M^−1 cm^−1), meropenem (Δε297 = −10,940 M^−1 cm^−1), and cefotaxime (Δε264 = −27,250 M^−1 cm^−1). In this study, the D63, D2148, and D2573 inhibitors were tested. Hydrolysis of β-lactam antibiotics was detected by monitoring the variation in absorbance due to cleavage of the β-lactam ring in 50 mM, pH 7.0, phosphate buffer ([40], [41]). For hydrolysis of substrate (cefotaxime, imipenem, and meropenem) kinetics parameters, Km and kcat were calculated by using Michaelis Menten equations (equations 2 and 3). (2) V =Vmax [S]/Km + [S] (3) kcat = Vmax/E where E and S are the enzyme and substrate concentration, Km is the Michaelis-Mentent constant, kcat is the turnover number, and V and Vmax are the initial and maximum velocity of the hydrolysis, respectively.
# [3] = biological target: T2, TEM-1 (Escherichia coli, UniProt P62593); assay: as above; type: biochemical; conditions: inhibitor concentration as per IC50
# T2 construct: made in house; host or cells: E. coli (DH5 and BL21(DE3) named; pET-28a)
# T2 sequence (P62593 24-286 limits assumed): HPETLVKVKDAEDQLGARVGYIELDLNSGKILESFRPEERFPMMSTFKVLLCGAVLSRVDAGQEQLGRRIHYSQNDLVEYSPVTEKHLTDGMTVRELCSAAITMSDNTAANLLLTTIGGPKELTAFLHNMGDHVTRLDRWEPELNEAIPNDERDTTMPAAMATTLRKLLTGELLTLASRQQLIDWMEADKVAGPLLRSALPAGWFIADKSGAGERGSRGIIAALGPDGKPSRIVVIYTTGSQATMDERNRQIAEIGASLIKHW
# Description: as §1, §2
# [4] = biological target: T3, Amp-C (Escherichia coli, UniProt P00811); assay: as above; type: biochemical; conditions: inhibitor concentration as per IC50
# T3 construct: made in house; host or cells: E. coli (DH5 and BL21(DE3) named; pET-28a)
# T3 sequence (P00811 20-377): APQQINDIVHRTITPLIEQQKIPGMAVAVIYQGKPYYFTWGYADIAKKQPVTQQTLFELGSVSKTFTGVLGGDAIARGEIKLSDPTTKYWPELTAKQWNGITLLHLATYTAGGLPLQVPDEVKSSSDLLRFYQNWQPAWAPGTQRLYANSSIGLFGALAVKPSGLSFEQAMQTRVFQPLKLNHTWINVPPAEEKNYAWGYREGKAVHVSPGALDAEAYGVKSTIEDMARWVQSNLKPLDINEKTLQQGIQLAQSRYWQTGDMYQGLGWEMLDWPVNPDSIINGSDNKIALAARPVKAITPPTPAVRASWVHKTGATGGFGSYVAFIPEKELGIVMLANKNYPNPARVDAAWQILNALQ
# Description: as §1, §2
# [5] = biological target: T4, NDM-1 (Klebsiella pneumoniae, UniProt C7C422); assay: as above; type: biochemical; conditions: inhibitor concentration as per IC50
# T4 construct: made in house; host or cells: E. coli (DH5 and BL21(DE3) named)
# T4 sequence (C7C422 29-270, looked up, species assumed): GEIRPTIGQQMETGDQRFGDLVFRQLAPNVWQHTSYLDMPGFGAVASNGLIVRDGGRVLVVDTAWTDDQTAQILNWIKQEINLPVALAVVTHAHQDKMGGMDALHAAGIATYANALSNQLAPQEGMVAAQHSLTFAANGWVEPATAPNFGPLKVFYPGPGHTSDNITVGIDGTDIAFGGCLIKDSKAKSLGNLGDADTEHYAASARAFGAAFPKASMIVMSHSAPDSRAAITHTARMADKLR
# Description: as §1, §2
# [6] = biological target: T5, SHV-1 (Klebsiella pneumoniae, UniProt P0AD64); assay: as above; type: biochemical; conditions: inhibitor concentration as per IC50
# T5 construct: made in house; host or cells: E. coli (DH5 and BL21(DE3) named; pET-28a)
# T5 sequence (P0AD64 22-286): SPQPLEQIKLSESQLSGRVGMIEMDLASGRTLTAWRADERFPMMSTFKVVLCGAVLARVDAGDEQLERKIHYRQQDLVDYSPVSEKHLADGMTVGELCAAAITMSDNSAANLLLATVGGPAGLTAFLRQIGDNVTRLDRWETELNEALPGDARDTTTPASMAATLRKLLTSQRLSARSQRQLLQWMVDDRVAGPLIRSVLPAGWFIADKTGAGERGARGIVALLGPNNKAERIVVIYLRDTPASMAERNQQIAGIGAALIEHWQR
# Description: as §1, §2
# [7] = biological target: T6, KPC-2 (Klebsiella pneumoniae, UniProt Q9F663); assay: as above; type: biochemical; conditions: inhibitor concentration as per IC50
# T6 construct: made in house; host or cells: E. coli (DH5 and BL21(DE3) named; pET-28a)
# T6 sequence (Q9F663 25-293, looked up, species assumed): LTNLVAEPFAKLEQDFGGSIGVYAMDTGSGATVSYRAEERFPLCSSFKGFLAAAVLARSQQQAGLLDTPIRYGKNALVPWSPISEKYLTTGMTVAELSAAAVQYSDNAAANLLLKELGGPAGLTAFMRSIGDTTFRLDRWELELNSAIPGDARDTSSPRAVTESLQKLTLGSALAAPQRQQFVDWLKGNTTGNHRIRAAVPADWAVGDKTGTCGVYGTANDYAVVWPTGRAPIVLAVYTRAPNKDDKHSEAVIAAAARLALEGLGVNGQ
# Description: as §1, §2
# [8] = system: clinical strain AK-67; assay: MIC, microdilution; type: cell-based
# Description: (§3) The blaSHV-1, blaTEM-1, blaKPC-2, and blaAmp-C genes were cloned in the pET-28a vector individually, followed by its transformation in Escherichia coli DH5α cells. The MIC values was determined for clinical strains (AK-10, AK-12, AK-18, NP-6, AK-67, and AK-66) and E. coli DH5α cells with selected clones (blaSHV-1, blaTEM-1, blaKPC-2, blaAmp-C, blaCTX-M-15, and blaNDM-1) carrying vectors individually.
# (§4) In a series of 2-fold dilutions, E. coli cells were given escalating doses of antibiotics from 0 to 512 μg/mL.
# [9] = system: clinical strain AK-10; assay: MIC, microdilution; type: cell-based
# Description: as §3, §4
# [10] = system: clinical strain AK-18; assay: MIC, microdilution; type: cell-based
# Description: as §3, §4
# [11] = system: clinical strain AK-66; assay: MIC, microdilution; type: cell-based
# Description: as §3, §4
# [12] = system: clinical strain NP-6; assay: MIC, microdilution; type: cell-based
# Description: as §3, §4
# [13] = system: E. coli DH5α cells with blaSHV-1 clone; assay: microbe, parasite or virus in culture; type: cell-based; conditions: Escherichia coli
# Description: as §3, §4
# [14] = system: E. coli DH5α cells with blaTEM-1 clone; assay: microbe, parasite or virus in culture; type: cell-based; conditions: Escherichia coli
# Description: as §3, §4
# [15] = system: E. coli DH5α cells with blaAmp-C clone; assay: microbe, parasite or virus in culture; type: cell-based; conditions: Escherichia coli
# Description: as §3, §4
# [16] = system: E. coli DH5α cells with blaKPC-2 clone; assay: microbe, parasite or virus in culture; type: cell-based; conditions: Escherichia coli
# Description: as §3, §4
# [17] = system: E. coli DH5α cells with blaNDM-1 clone; assay: microbe, parasite or virus in culture; type: cell-based; conditions: Escherichia coli
# Description: as §3, §4
# [18] = system: E. coli DH5α cells with blaCTX-M-15 clone; assay: microbe, parasite or virus in culture; type: cell-based; conditions: Escherichia coli
# Description: as §3, §4
# [19] = clinical strain AK-66, read-out: MIC
smiles,measurement,setting,value
"NC(=O)[C@@H]1CC[C@@H]2CN1C(=O)N2OS(=O)(=O)O [Avibactam, reference compound]",IC50,[1],5 nM
same,Km or Ki,[2]; cefotaxime,2047 μΜ
same,kcat,[2]; cefotaxime,1.858 S^−1
same,Km or Ki,[2]; imipenem,"2,918 μΜ"
same,kcat,[2]; imipenem,0.4807 S^−1
same,Km or Ki,[2]; meropenem,745.5 μΜ
same,kcat,[2]; meropenem,1.566 S^−1
same,Km or Ki,[3]; cefotaxime,"1,558 μΜ"
same,kcat,[3]; cefotaxime,1.339 S^−1
same,Km or Ki,[3]; imipenem,"2,918 μΜ"
same,kcat,[3]; imipenem,1.107 S^−1
same,Km or Ki,[3]; meropenem,"12,315 μΜ"
same,kcat,[3]; meropenem,5.916 S^−1
same,Km or Ki,[4]; cefotaxime,"1,199 μΜ"
same,kcat,[4]; cefotaxime,1.417 S^−1
same,Km or Ki,[4]; imipenem,321 μΜ
same,kcat,[4]; imipenem,0.861 S^−1
same,Km or Ki,[4]; meropenem,"1,442 μΜ"
same,kcat,[4]; meropenem,2.213 S^−1
same,Km or Ki,[5]; cefotaxime,212.2 μΜ
same,kcat,[5]; cefotaxime,1.036 S^−1
same,Km or Ki,[5]; imipenem,615.5 μΜ
same,kcat,[5]; imipenem,2.194 S^−1
same,Km or Ki,[5]; meropenem,440.9 μΜ
same,kcat,[5]; meropenem,1.268 S^−1
same,Km or Ki,[6]; cefotaxime,"1,201 μΜ"
same,kcat,[6]; cefotaxime,0.6119 S^−1
same,Km or Ki,[6]; imipenem,835.4 μΜ
same,kcat,[6]; imipenem,0.5531 S^−1
same,Km or Ki,[6]; meropenem,532 μΜ
same,kcat,[6]; meropenem,0.4803 S^−1
same,Km or Ki,[7]; cefotaxime,1299 μΜ
same,kcat,[7]; cefotaxime,0.549 S^−1
same,Km or Ki,[7]; imipenem,"2,637 μΜ"
same,kcat,[7]; imipenem,1.499 S^−1
same,Km or Ki,[7]; meropenem,"1,740 μΜ"
same,kcat,[7]; meropenem,0.72 S^−1
CO/N=C(\C(=O)N[C@@H]1C(=O)N2C(C(=O)O)=C(COC(C)=O)CS[C@H]12)c1csc(N)n1 [Cefotaxime],MIC,[8],512 µg/mL
same,MIC,[9],1020 µg/mL
same,MIC,[10],32 µg/mL
same,MIC,[11],512 µg/mL
same,MIC,[12],16 µg/mL
same,MIC,[13],4 µg/mL
same,MIC,[14],2 µg/mL
same,MIC,[15],2 µg/mL
same,MIC,[16],2 µg/mL
same,MIC,[17],256 µg/mL
same,MIC,[18],512 µg/mL
CO[C@@]1(NC(=O)Cc2cccs2)C(=O)N2C(C(=O)O)=C(COC(N)=O)CS[C@@H]21 [Cefoxitin],MIC,[11]; [19],64 µg/mL
same,MIC,[12],64 µg/mL
same,MIC,[13],32 µg/mL
same,MIC,[14],32 µg/mL
same,MIC,[15],32 µg/mL
same,MIC,[16],32 µg/mL
same,MIC,[17],32 µg/mL
same,MIC,[18],32 µg/mL
C[C@@H](O)[C@H]1C(=O)N2C(C(=O)O)=C(SCCN=CN)C[C@H]12 [Imipenem],MIC,[9],128 µg/mL
same,MIC,[11]; [19],1020 µg/mL
same,MIC,[12],64 µg/mL
same,MIC,[13],16 µg/mL
same,MIC,[14],16 µg/mL
same,MIC,[15],16 µg/mL
same,MIC,[16],16 µg/mL
same,MIC,[17],512 µg/mL
same,MIC,[18],32 µg/mL
C[C@@H](O)[C@H]1C(=O)N2C(C(=O)O)=C(S[C@@H]3CN[C@H](C(=O)N(C)C)C3)[C@H](C)[C@H]12 [Meropenem],MIC,[9],32 µg/mL
same,MIC,[10],32 µg/mL
same,MIC,[11]; [19],1020 µg/mL
same,MIC,[12],16 µg/mL
same,MIC,[13],2 µg/mL
same,MIC,[14],2 µg/mL
same,MIC,[15],4 µg/mL
same,MIC,[16],2 µg/mL
same,MIC,[17],1020 µg/mL
same,MIC,[18],2 µg/mL
